# Measured values published in paper PMC2014795 (PLoS Pathogens, 2007).
# Read-outs that look alike come from different tables or passages of the source. Where no end group is shown, it is not given here.
# Biological target: T1, HLA-DR1 (DRB1*0101) (Homo sapiens, UniProt P01903+P01911, A100R/D57E/F55L/F60I/F76Y/I96L/L162R/M171V/P40L/Q125E/R42F/V115G/Y59C)
# T1 construct: the extracellular portion of HLA-DR1 was produced by expression of isolated subunits in Escherichia coli inclusion bodies; made in house
# Assay: biochemical
# Format: binding
Compound,IC50,"IC50 (HLA-DR1 competition assay, unpublished data, read-out: IC50)"
CC[C@H](C)[C@H](N)C(=O)N[C@@H](CO)C(=O)N[C@@H](CCC(=O)O)C(=O)N1CCC[C@H]1C(=O)N[C@H](C(=O)N[C@@H](CC(N)=O)C(=O)N[C@H](C(=O)N[C@@H](Cc1ccc(O)cc1)C(=O)N[C@@H](CC(C)C)C(=O)N[C@@H](CC(C)C)C(=O)N[C@@H](C)C(=O)N[C@@H](C)C(=O)N[C@H](C(=O)N[C@@H](Cc1ccc(O)cc1)C(=O)N[C@@H](CO)C(=O)N[C@@H](CC(=O)O)C(=O)N[C@@H](Cc1ccccc1)C(=O)N[C@@H](CC(N)=O)C(=O)N[C@@H](CC(=O)O)C(=O)N[C@@H](CCC(=O)O)C(=O)N[C@H](C(=O)O)C(C)C)C(C)C)C(C)C)C(C)C [Peptide 341],32 ± 2 nM,
CC[C@H](C)[C@H](N)C(=O)N[C@@H](CC(=O)O)C(=O)N[C@@H](CC(N)=O)C(=O)N[C@@H](CCC(=O)O)C(=O)N[C@@H](CO)C(=O)NCC(=O)N[C@@H](Cc1c[nH]c2ccccc12)C(=O)N[C@@H](CCCCN)C(=O)N[C@H](C(=O)N[C@@H](CC(C)C)C(=O)N[C@H](C(=O)N[C@@H](CO)C(=O)N[C@@H](CCCNC(=N)N)C(=O)N[C@@H](C)C(=O)N[C@H](C(=O)N[C@@H](CC(=O)O)C(=O)N[C@@H](CC(C)C)C(=O)N[C@@H](CO)C(=O)N[C@@H](CO)C(=O)N[C@@H](CCCCN)C(=O)N[C@@H](CCCCN)C(=O)O)[C@@H](C)CC)C(C)C)[C@@H](C)O [Peptide 342],130 ± 10 nM,
CC[C@H](C)[C@H](NC(=O)[C@H](C)NC(=O)[C@H](CCCNC(=N)N)NC(=O)CNC(=O)[C@@H](NC(=O)[C@@H](NC(=O)[C@H](CCC(N)=O)NC(=O)[C@H](CCCNC(=N)N)NC(=O)[C@H](CC(C)C)NC(=O)[C@H](CO)NC(=O)[C@H](C)NC(=O)[C@H](CCC(=O)O)NC(=O)[C@H](CC(N)=O)NC(=O)[C@H](Cc1c[nH]c2ccccc12)NC(=O)[C@@H](N)[C@@H](C)O)[C@@H](C)CC)C(C)C)C(=O)N[C@@H](CCCNC(=N)N)C(=O)N[C@@H](CC(C)C)C(=O)N[C@@H](CC(N)=O)C(=O)N[C@@H](CO)C(=O)N[C@@H](Cc1c[nH]cn1)C(=O)N[C@H](C(=O)O)C(C)C [Peptide 343],210 ± 20 nM,
CC[C@H](C)[C@H](N)C(=O)N[C@H](C(=O)N[C@H](C(=O)N[C@@H](Cc1c[nH]c2ccccc12)C(=O)N1CCC[C@H]1C(=O)N[C@@H](CCCCN)C(=O)N[C@@H](Cc1ccccc1)C(=O)N[C@@H](CCCNC(=N)N)C(=O)N[C@H](C(=O)N[C@H](C(=O)N[C@@H](CCCCN)C(=O)N1CCC[C@H]1C(=O)N[C@@H](CC(N)=O)C(=O)N[C@@H](CO)C(=O)N[C@@H](Cc1ccccc1)C(=O)N[C@H](C(=O)N[C@@H](Cc1ccccc1)C(=O)N[C@@H](CO)C(=O)N[C@@H](Cc1ccccc1)C(=O)N[C@@H](CO)C(=O)N[C@@H](CO)C(=O)O)[C@@H](C)O)C(C)C)C(C)C)[C@@H](C)O)[C@@H](C)O [Peptide 344],33 ± 5 nM,
CC[C@H](C)[C@H](NC(=O)[C@H](CO)NC(=O)[C@H](CC(N)=O)NC(=O)[C@H](Cc1ccccc1)NC(=O)[C@@H](NC(=O)[C@H](CC(C)C)NC(=O)[C@H](CCC(N)=O)NC(=O)[C@H](CC(=O)O)NC(=O)[C@H](CCC(=O)O)NC(=O)[C@@H](N)Cc1ccccc1)C(C)C)C(=O)N[C@@H](CO)C(=O)N[C@@H](C)C(=O)N[C@@H](CCCNC(=N)N)C(=O)N[C@@H](C)C(=O)N[C@@H](CC(C)C)C(=O)N[C@@H](CCCCN)C(=O)N[C@@H](C)C(=O)N[C@@H](Cc1ccc(O)cc1)C(=O)N[C@@H](Cc1ccccc1)C(=O)N[C@H](C(=O)N[C@@H](C)C(=O)O)[C@@H](C)O [Peptide 345],8 ± 0.3 nM,
CSCC[C@H](NC(=O)[C@H](CC(=O)O)NC(=O)[C@@H](NC(=O)[C@H](CCCNC(=N)N)NC(=O)[C@H](CCSC)NC(=O)[C@H](Cc1ccccc1)NC(=O)[C@@H]1CCCN1C(=O)[C@@H](NC(=O)[C@H](CCC(N)=O)NC(=O)[C@H](CCCCN)NC(=O)CNC(=O)[C@@H]1CCCN1C(=O)[C@@H](N)CC(N)=O)C(C)C)[C@@H](C)O)C(=O)N[C@@H](CC(C)C)C(=O)O [Peptide B7055],,11 nM
TTKHPDYAILAARIAVSNLHK [Peptide 307],28 ± 4 nM,
